Test results as given in publication PMC8308585, “Design and Synthesis of Novel Thiazolo[5,4-d]pyrimidine Derivatives with High Affinity for Both the Adenosine A1 and A2A Receptors, and Efficacy in Animal Models of Depression” (Pharmaceuticals, 2021).
Like-named read-outs stand apart in the source and are kept apart here.

Experiments:
human A2A AR = biological target: T1, human A2A AR (Homo sapiens, UniProt P29274); assay: Radioligand binding, displacement of [3H]-NECA at hA2A AR in CHO cells;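 further: competition binding on membranes from CHO cells stably transfected with human A2A receptor, binding curves fitted by nonlinear regression in GraphPad Prism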
T1 construct: expressed in transfected cells; host or cells: CHO cells
Experimental: (§2) CHO cells, stably expressing hARs, were grown adherently and maintained in Dulbecco’s modified Eagle’s medium (DMEM) with nutrient mixture F12 supplemented with 10% fetal bovine serum (FBS), penicillin (100 µg/mL), streptomycin (100 µg/mL), sodium pyruvate (1 mM), and geneticin (0.1 mg/mL).
(§3) Briefly, cells were homogenized in cold lysis buffer (5 mM Tris HCl, 2 mM EDTA, pH 7.4), centrifuged at low speed spin for 10 min, and subsequently, the supernatant was spun at 37,000 rpm. Membrane pellet was resuspended in the specific buffer and stored at −80 °C.

hA3 AR = biological target: T2, hA3 AR (Homo sapiens, UniProt P0DMS8); assay: Radioligand binding, displacement of [3H]-HEMADO at hA3 AR in CHO cells; conditions: displacement of specific [3H]-HEMADO binding, mean ± SEM
T2 construct: expressed in transfected cells; host or cells: CHO cells
T2 sequence (P0DMS8 1-318): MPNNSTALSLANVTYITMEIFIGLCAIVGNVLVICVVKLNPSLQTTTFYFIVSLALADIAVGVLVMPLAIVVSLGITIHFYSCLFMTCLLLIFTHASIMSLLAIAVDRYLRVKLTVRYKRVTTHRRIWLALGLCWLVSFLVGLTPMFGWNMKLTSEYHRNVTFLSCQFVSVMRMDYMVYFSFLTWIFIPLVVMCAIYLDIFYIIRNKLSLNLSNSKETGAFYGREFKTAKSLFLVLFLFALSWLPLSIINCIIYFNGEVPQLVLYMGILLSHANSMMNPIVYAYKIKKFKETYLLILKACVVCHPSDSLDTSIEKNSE
Experimental: as §2, §3

hA2B AR = biological target: T3, hA2B AR (Homo sapiens, UniProt P29275); assay: Inhibition of NECA-stimulated adenylyl cyclase activity (cAMP) in CHO cells expressing hA2B AR; format: cell-based; conditions: mean ± SEM
T3 construct: expressed in transfected cells; host or cells: CHO cells
T3 sequence (P29275 1-332): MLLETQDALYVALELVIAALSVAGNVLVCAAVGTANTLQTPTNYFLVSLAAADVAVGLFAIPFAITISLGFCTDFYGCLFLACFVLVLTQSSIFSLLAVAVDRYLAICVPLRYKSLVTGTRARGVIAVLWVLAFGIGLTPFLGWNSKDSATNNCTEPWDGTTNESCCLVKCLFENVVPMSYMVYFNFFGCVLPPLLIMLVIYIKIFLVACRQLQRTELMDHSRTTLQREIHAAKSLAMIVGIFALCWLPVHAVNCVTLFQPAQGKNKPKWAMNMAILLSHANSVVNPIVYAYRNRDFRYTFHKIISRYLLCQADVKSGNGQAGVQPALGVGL
Experimental: Compounds 1–19 were evaluated for their binding affinity at hA1, hA2A, and hA3 ARs, stably transfected in Chinese hamster ovary (CHO) cells. […].
The binding affinity of the novel compounds was evaluated using radioligand competition experiments in CHO cells stably transfected with hA1 AR, hA2A AR, and hA3 AR subtypes. […]; The potency at hA2B AR, expressed on CHO cells, was determined by inhibition of NECA-stimulated adenylyl cyclase activity. […]
(§1) Binding data and concentration–response curves were fitted by a nonlinear regression with the Prism program (GraphPAD Prism 7 Software, San Diego, CA, USA). Each concentration was tested 3–5 times in duplicate and the Ki or IC50 (the concentration of antagonists that produces 50% inhibition of the agonist effect) values are given as the mean ± standard error (S.E.).

hA1 AR = biological target: T4, hA1 AR (Homo sapiens, UniProt P30542); assay: Counteraction of NECA-induced decrease of cAMP in CHO cells expressing hA1 AR (GloSensor cAMP assay); format: cell-based; conditions: NECA-stimulated activity in CHO cells expressing hA1 AR, mean ± standard error
T4 construct: expressed in transfected cells; host or cells: CHO cells
T4 sequence (P30542 1-326): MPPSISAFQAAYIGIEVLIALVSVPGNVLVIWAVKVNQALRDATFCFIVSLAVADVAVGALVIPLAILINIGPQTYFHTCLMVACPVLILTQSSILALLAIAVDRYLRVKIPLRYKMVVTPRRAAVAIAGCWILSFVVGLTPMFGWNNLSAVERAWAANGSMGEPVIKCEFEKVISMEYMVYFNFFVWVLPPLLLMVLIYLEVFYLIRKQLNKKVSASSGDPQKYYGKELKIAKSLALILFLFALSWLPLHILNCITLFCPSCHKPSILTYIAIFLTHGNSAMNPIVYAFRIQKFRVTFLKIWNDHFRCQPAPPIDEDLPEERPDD
Experimental: Compound 18 was also tested to evaluate its antagonist behavior at the hA1 AR by assessing its ability to counteract NECA-induced decrease of cAMP accumulation.
The intrinsic activity of understudy compounds was evaluated through the GloSensor cAMP assay, as described previously. Briefly, cells stably expressing the hA1, hA2A, and hA2B ARs and the biosensor were incubated for 2 h at rt in equilibration medium containing 3% v/v GloSensor cAMP reagent stock solution, 10% FBS, and 87% CO2 independent medium. Afterward, cells were dispensed in the wells of a 384-well plate and the reference agonist NECA or the compounds, at different concentrations, were tested. The antagonist profile of compounds was evaluated by assessing their ability to counteract NECA-induced increase (A2A and A2B ARs) or decrease (A1 AR) of cAMP accumulation. Responses were expressed as percentage of the maximal relative luminescence units (RLU).
as §1

mice = assay: Forced swimming test; format: in vivo, mouse; conditions: for Immobility Time: mouse FST, single dose 26 min before test, last 4 min of 6 min, mean ± SEM of 10 mice, vehicle 193.7 ± 8.9
Experimental: To execute the tests, mice were divided into groups, each of which consisted of 10 animals. The tests were performed after a single p.o. administration of compound 18 at different dosages (10 mg Kg^−1 and 30 mg Kg^−1). Amitriptyline (15 mg Kg^−1) was used as the reference drug. Compounds were acutely administrated 26 min before the beginning of the experiment. In the FST (Table 4), the duration of immobility was recorded during the last 4 min of the 6 min test.
Male CD-1 albino mice (22–25 g; Envigo, Varese, Italy) were housed in CeSAL (Centro Stabulazione Animali da Laboratorio, University of Florence, Florence, Italy) and used at least one week after their arrival. Animals were housed in 26 cm × 41 cm cages (12 mice each) and fed with a standard laboratory diet and tap water ad libitum. They were kept at 23 ± 1 °C with a 12 h light/dark cycle, light at 7 a.m. Compound 18 was administered per o.s. whereas amitriptyline was by a s.c. route following the most widely used approach reported in the literature.
Mice were individually placed into glass cylinders (height: 25 cm, diameter: 10 cm) containing 12 cm of water maintained at 22–23 °C for 6 min. Immobility was considered the animal floated in the water, in an upright position, and made only small movements to keep its head above water. The immobility time was recorded during the last 4-min of the 6-min test. A decrease in the duration of immobility is indicative of an antidepressant-like effect.
Behavioral tests were performed by visual observation by researchers blinded to the treatments. Results were expressed as means ± SEM, variance was analyzed by ANOVA. A Bonferroni’s significant difference procedure was used as post-hoc comparison. p values of less than 0.05 and 0.01 were considered significant. Data were analyzed using the “Origin 8.1” software.

T1 sequence (P29274 whole entry): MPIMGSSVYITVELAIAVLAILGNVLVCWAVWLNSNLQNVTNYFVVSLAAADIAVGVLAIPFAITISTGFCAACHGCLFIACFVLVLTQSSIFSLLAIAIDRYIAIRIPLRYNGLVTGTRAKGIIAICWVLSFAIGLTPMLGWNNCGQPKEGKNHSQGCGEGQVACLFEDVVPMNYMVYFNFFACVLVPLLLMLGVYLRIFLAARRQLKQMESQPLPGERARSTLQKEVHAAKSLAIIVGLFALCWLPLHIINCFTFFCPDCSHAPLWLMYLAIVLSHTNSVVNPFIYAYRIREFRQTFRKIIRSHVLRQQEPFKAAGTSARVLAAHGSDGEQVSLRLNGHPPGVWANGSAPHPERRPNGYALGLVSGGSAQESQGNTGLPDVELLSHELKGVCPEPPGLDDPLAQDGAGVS

Compound: Nc1nc(-c2ccco2)nc2sc(Cc3ccccc3F)nc12 [compound 18, 2-(2-Fluorobenzyl)-5-(furan-2-yl)thiazolo[5,4-d]pyrimidin-7-amine]
- Ki (human A2A AR; displacement of specific [3H]-NECA binding, CHO cells, mean ± SEM, read-out: hA2A Ki): 0.06 ± 0.02 nM
- Ki (human A2A AR; hA2A AR, as listed in Table 3, read-out: pKi A2A (converted)): 0.0646 nM
- Ki (hA3 AR): 93.1 ± 2.8 nM
- IC50 (hA2B AR): 384 ± 55 nM
- IC50 (hA1 AR): 360 nM
- Immobility Time (mice; 10 mg kg^−1 p.o.): 184.7 ± 5.6 s
- Immobility Time (mice; 30 mg kg^−1 p.o.): 143.5 ± 9.1 s
- Antidepressant-like effect in FST (in words) (mice; mouse, 10 and 30 mg Kg^−1 p.o., vs amitriptyline 15 mg Kg^−1): dose-dependently induced an antidepressant-like effect comparable to that induced by the clinically used drug amitriptyline
